Results on ten compounds are retold here after US5389639A, “Amino alkanoic esters of rapamycin” (American Home Products Company, priority 1993, dated 1995).

In series [1] the test system is pinch skin graft from male BALB/c donors transplanted to male C3H(H-2K) recipients. The series can be described thus: Survival time of pinch skin graft. The series is classed as in vivo, mouse. Particulars: 4 mg/kg; intraperitoneally or orally; untreated usually rejected within 6-7 days. Here is the method:
(§1) Immunosuppressive activity for representative compounds of this invention was evaluated in an in vitro standard pharmacological test procedure to measure lymphocyte proliferation (LAF) and in an in vivo standard pharmacological test procedure which evaluated the survival time of a pinch skin graft.
Representative compounds of this invention were also evaluated in an in vivo test procedure designed to determine the survival time of pinch skin graft from male BALB/c donors transplanted to male C3 H(H-2K) recipients. The method is adapted from Billingham R. E. and Medawar P. B., J. Exp. Biol. 28:385-402, (1951). Briefly, a pinch skin graft from the donor was grafted on the dorsum of the recipient as a allograft, and an isograft was used as control in the same region. The recipients were treated with either varying concentrations of test compounds intraperitoneally or orally. Rapamycin was used as a test control. Untreated recipients serve as rejection control. The graft was monitored daily and observations were recorded until the graft became dry and formed a blackened scab. This was considered as the rejection day. The mean graft survival time (number of days ±S.D.) of the drug treatment group was compared with the control group. […] Results are expressed as the mean survival time in days. Untreated (control) pinch skin grafts are usually rejected within 6-7 days. The results shown in Table 1 are based on a dose of 4 mg/kg of test compound. A survival time of 11.67±0.63 days was obtained for rapamycin at 4 mg/kg.

Series [2] concerns cells from the thymus of normal BALB/c mice (lymphocyte proliferation). As to the kind of experiment: Comitogen-induced thymocyte proliferation procedure (LAF). The series is classed as cell-based. Particulars: Mus musculus. Here is the method: as §1
The comitogen-induced thymocyte proliferation procedure (LAF) was used as an in vitro measure of the immunosuppressive effects of representative compounds. Briefly, cells from the thymus of normal BALB/c mice are cultured for 72 hours with PHA and IL-1 and pulsed with tritiated thymidine during the last six hours. Cells are cultured with and without various concentrations of rapamycin, cyclosporin A, or test compound. Cells are harvested and incorporated radioactivity is determined. Inhibition of lymphoproliferation is assessed as percent change in counts per minute from non-drug treated controls. For each compound evaluated, rapamycin was also evaluated for the purpose of comparison. An IC50 was obtained for each test compound as well as for rapamycin. […] The results obtained for the representative compounds of this invention are presented as IC50s.

Series [3] is described as follows: Relative oral potency: oral and i.p. ED50s in the skin graft test procedure. The series is classed as in vivo. Particulars: mouse, ratio of oral and i.p. ED50s, p.o. 40, 10, 2.5 mg/kg, i.p. 4, 1, 0.25 mg/kg, 6 consecutive days, data obtained in cremophor, lower ratio = greater oral bioavailability. Here is the method:
The relative oral potency is determined by comparing the oral and i.p. ED50s obtained in the skin graft standard pharmacological test procedure. Briefly, the compound to be tested is evaluated at the doses of 40, 10, and 2.5 mg/kg for p.o. administration and 4, 1, and 0.25 mg/kg for i.p. administration, both administered for 6 consecutive days in the skin graft test procedure so that a dose response curve can be generated for both oral and i.p. administration. The data are subjected to a parallel line analysis and an oral and i.p. ED50 is calculated for the compound tested, and the ED50s are expressed as a ratio according to the following formula: [formula]
When comparing oral potency for different compounds that have been evaluated, the lower the ratio, the greater the oral bioavailability. The oral bioavailability serves as a measure of oral potency.

Series [4] concerns experimental allergic encephalomyelitis. The settings on record: model for multiple sclerosis; cited from earlier work.
A further series deals with Candida albicans. The settings on record: particularly against Candida albicans, both in vitro and in vivo; cited from earlier work.
The subject of a further series is adjuvant arthritis. The settings on record: model for rheumatoid arthritis; cited from earlier work.
[5] abbreviates: 72 hours with PHA and IL-1, tritiated thymidine during last six hours, read-out: LAF IC50.

Where two headings read alike, the source gives them in different places.

As to `CO[C@H]1C[C@@H]2CC[C@@H](C)[C@@](O)(O2)C(=O)C(=O)N2CCCC[C@H]2C(=O)O[C@H]([C@H](C)C[C@@H]2CC[C@@H](OC(=O)C[C@H](NC(=O)OCc3ccccc3)C(=O)O)[C@H](OC)C2)CC(=O)[C@H](C)/C=C(\C)[C@@H](O)[C@@H](OC)C(=O)[C@H](C)C[C@H](C)/C=C/C=C/C=C/1C` [Example 1, Rapamycin 42-ester with (S)-3-carboxy-3-[[[phenylmethoxy]carbonyl]amino]-propanoic acid], in series [1], the “Skin Graft mean survival time (days ± SD)” value came to 10.00 ± 0.00 days. Moreover, the IC50 in series [2] (setting [5]) stood at 10.7 nM.

`CO[C@H]1C[C@@H]2CC[C@@H](C)[C@@](O)(O2)C(=O)C(=O)N2CCCC[C@H]2C(=O)O[C@H]([C@H](C)C[C@@H]2CC[C@@H](OC(=O)C[C@H](N)C(=O)O)[C@H](OC)C2)CC(=O)[C@H](C)/C=C(\C)[C@@H](O)[C@@H](OC)C(=O)[C@H](C)C[C@H](C)/C=C/C=C/C=C/1C` [Example 3, Rapamycin 42-ester with (S)-3-amino-3-carboxypropanoic acid]: the “Skin Graft mean survival time (days ± SD)” value in series [1] came to 10.17 ± 0.75 days. Also, the 50% inhibitory concentration (IC50) in series [2] (setting [5]) was 2.5 nM.

Regarding `CCCOC(=O)N[C@@H](CCC(=O)O[C@@H]1CC[C@@H](C[C@@H](C)[C@@H]2CC(=O)[C@H](C)/C=C(\C)[C@@H](O)[C@@H](OC)C(=O)[C@H](C)C[C@H](C)/C=C/C=C/C=C(\C)[C@@H](OC)C[C@@H]3CC[C@@H](C)[C@@](O)(O3)C(=O)C(=O)N3CCCC[C@H]3C(=O)O2)C[C@H]1OC)C(=O)O` [Example 4, Rapamycin 42-ester with (S)-4-carboxy-4-[[[propyloxy]carbonyl]amino]butanoic acid], the “Skin Graft mean survival time (days ± SD)” value in series [1] amounted to 11.00 ± 1.00 days. Besides, the half-inhibitory concentration (IC50) in series [2] (setting [5]) came to 3.2 nM.

Turning to `CCCOC(=O)N[C@H](CCC(=O)O[C@@H]1CC[C@@H](C[C@@H](C)[C@@H]2CC(=O)[C@H](C)/C=C(\C)[C@@H](O)[C@@H](OC)C(=O)[C@H](C)C[C@H](C)/C=C/C=C/C=C(\C)[C@@H](OC)C[C@@H]3CC[C@@H](C)[C@@](O)(O3)C(=O)C(=O)N3CCCC[C@H]3C(=O)O2)C[C@H]1OC)C(=O)O` [Example 5, Rapamycin 42-ester with (R)-4-carboxy-4[[[propyloxy]carbonyl]amino]-butanoic acid], the “Skin Graft mean survival time (days ± SD)” value in series [1] is 10.83 ± 0.75 days. For the same compound, in series [2] (setting [5]), the half-inhibitory concentration (IC50) was 3.9 nM.

As for `CO[C@H]1C[C@@H]2CC[C@@H](C)[C@@](O)(O2)C(=O)C(=O)N2CCCC[C@H]2C(=O)O[C@H]([C@H](C)C[C@@H]2CC[C@@H](OC(=O)CC[C@H](N)C(=O)O)[C@H](OC)C2)CC(=O)[C@H](C)/C=C(\C)[C@@H](O)[C@@H](OC)C(=O)[C@H](C)C[C@H](C)/C=C/C=C/C=C/1C` [Example 7, Rapamycin 42-ester with (S)-4-amino-4-carboxy-butanoic acid], in series [1], the “Skin Graft mean survival time (days ± SD)” value is 10.80 ± 0.40 days. Further, in series [2] (setting [5]), the IC50 came out at 14 nM.

As to `CO[C@H]1C[C@@H]2CC[C@@H](C)[C@@](O)(O2)C(=O)C(=O)N2CCCC[C@H]2C(=O)O[C@H]([C@H](C)C[C@@H]2CC[C@@H](OC(=O)CC[C@@H](N)C(=O)O)[C@H](OC)C2)CC(=O)[C@H](C)/C=C(\C)[C@@H](O)[C@@H](OC)C(=O)[C@H](C)C[C@H](C)/C=C/C=C/C=C/1C` [Example 9, Rapamycin 42-ester with (R)-4-amino-4-carboxybutanoic acid], in series [1], the “Skin Graft mean survival time (days ± SD)” value is given as 11.20 ± 1.00 days. Moreover, in series [2] (setting [5]), the concentration for half-maximal inhibition (IC50) amounted to 7.8 nM.

For the compound `CO[C@H]1C[C@@H]2CC[C@@H](C)[C@@](O)(O2)C(=O)C(=O)N2CCCC[C@H]2C(=O)O[C@H]([C@H](C)C[C@@H]2CC[C@@H](OC(=O)CC[C@H](NC(=O)OCc3ccccc3)C(=O)O)[C@H](OC)C2)CC(=O)[C@H](C)/C=C(\C)[C@@H](O)[C@@H](OC)C(=O)[C@H](C)C[C@H](C)/C=C/C=C/C=C/1C` [Example 10], the “Skin Graft mean survival time (days ± SD)” value in series [1] amounted to 10.17 ± 0.41 days. Further, in series [2] (setting [5]), the IC50 was 27.1 nM.

Consider `CO[C@H]1C[C@@H]2CC[C@@H](C)[C@@](O)(O2)C(=O)C(=O)N2CCCC[C@H]2C(=O)O[C@H]([C@H](C)C[C@@H]2CC[C@@H](OC(=O)CC[C@H](N)C(=O)OC(C)(C)C)[C@H](OC)C2)CC(=O)[C@H](C)/C=C(\C)[C@@H](O)[C@@H](OC)C(=O)[C@H](C)C[C@H](C)/C=C/C=C/C=C/1C` [Example 11, Rapamycin 42-ester with-(S)-4-amino-5-(1,1-dimethylethoxy)-5-oxo-pentanoic acid], for which the “Skin Graft mean survival time (days ± SD)” value in series [1] is recorded as 11.50 ± 1.05 days. The 50% inhibitory concentration (IC50) in series [2] (setting [5]) was found to be 1.1 nM. The selectivity ratio in series [3] was 5.6.

Turning to `CO[C@H]1C[C@@H]2CC[C@@H](C)[C@@](O)(O2)C(=O)C(=O)N2CCCC[C@H]2C(=O)O[C@H]([C@H](C)C[C@@H]2CC[C@@H](OC(=O)CC[C@H](NC(=O)OC(C)(C)C)C(=O)OC(C)(C)C)[C@H](OC)C2)CC(=O)[C@H](C)/C=C(\C)[C@@H](O)[C@@H](OC)C(=O)[C@H](C)C[C@H](C)/C=C/C=C/C=C/1C` [Rapamycin 42-ester with (S)-5-tert-butoxy-4-tert-butoxycarbonylamino-5-oxo-pentanoic acid, reference compound], the selectivity ratio in series [3] is 188.

As for `CO[C@H]1C[C@@H]2CC[C@@H](C)[C@@](O)(O2)C(=O)C(=O)N2CCCC[C@H]2C(=O)O[C@H]([C@H](C)C[C@@H]2CC[C@@H](O)[C@H](OC)C2)CC(=O)[C@H](C)/C=C(\C)[C@@H](O)[C@@H](OC)C(=O)[C@H](C)C[C@H](C)/C=C/C=C/C=C/1C` [rapamycin], in series [4], the “effect in the experimental allergic encephalomyelitis model” value was “effective”. Besides, the “Skin Graft mean survival time (days ± SD)” value in series [1] stood at 11.67 ± 0.63 days. Moreover, in series [2] (read-out: IC50 of rapamycin as comparator (LAF)), the IC50 lay in the range of 2.8 to 11.6 nM. The antifungal activity entry in the series with Candida albicans is reported as “antifungal activity”. The “effect in the adjuvant arthritis model” value with adjuvant arthritis is “effective”.
